Reference: ChEMBL document CHEMBL1201862, “PubChem BioAssay data set” (2004)
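1) Cells in 96-well plates. 2) Compound, 48 h, 5 concentrations. 3) Linear interpolation between surrounding doses. 4) Unreached endpoint = highest concentration. GI50 = concentration required for 50% inhibition of growth.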 Calls of active or inactive are those of the source. Cut-off read from the data, not from the text of the source: active = GI50 up to about 1.1 µM and inactive = higher.

How the values were obtained:
Test in all cases: NCI tumour cell line growth inhibition, 48 h
NCI/ADR-RES = test system: NCI/ADR-RES
PC-3 = test system: PC-3
UACC-257 = test system: UACC-257
SK-MEL-2 = test system: SK-MEL-2
SF-268 = test system: SF-268
NCI-H226 = test system: NCI-H226
SK-MEL-28 = test system: SK-MEL-28
BT-549 = test system: BT-549
SF-295 = test system: SF-295
KM12 = test system: KM12
DU-145 = test system: DU-145
RPMI-8226 = test system: RPMI-8226
MOLT-4 = test system: MOLT-4
T47D = test system: T47D
SNB-75 = test system: SNB-75
RXF 393 = test system: RXF 393
HCT-15 = test system: HCT-15
OVCAR-3 = test system: OVCAR-3

| Structure (SMILES) | GI50 (NCI/ADR-RES) | GI50 (PC-3) | GI50 (UACC-257) | GI50 (SK-MEL-2) | GI50 (SF-268) | GI50 (NCI-H226) | GI50 (SK-MEL-28) | GI50 (BT-549) | GI50 (SF-295) | GI50 (KM12) | GI50 (DU-145) | GI50 (RPMI-8226) | GI50 (MOLT-4) | GI50 (T47D) | GI50 (SNB-75) | GI50 (RXF 393) | GI50 (HCT-15) | GI50 (OVCAR-3) |
| --- | --- | --- | --- | --- | --- | --- | --- | --- | --- | --- | --- | --- | --- | --- | --- | --- | --- | --- |
| COc1ccc(/N=N/C(=N/NC(=O)c2cc(Cl)ccc2C(=O)c2ccccc2)c2ccc(N(CCC#N)CCC#N)cc2C)cc1 | 16.7 µM (inactive) | 11.4 µM (inactive) | 27.7 µM (inactive) | 6.9 µM (inactive) | 12.1 µM (inactive) | 16.2 µM (inactive) | 25.8 µM (inactive) | 29.4 µM (inactive) | 26.1 µM (inactive) | 21.4 µM (inactive) | 19.5 µM (inactive) | 9.35 µM (inactive) | 9.08 µM (inactive) | 15 µM (inactive) | 27.8 µM (inactive) | 3.8 µM (inactive) | 13.9 µM | 5.04 µM (inactive) |
| COc1ccc(/C=N/n2c(C)n[nH]c2=O)c(OC)c1 | > 100 µM (inactive) | > 100 µM (inactive) | > 100 µM (inactive) | > 100 µM (inactive) | > 100 µM (inactive) | > 100 µM (inactive) | > 100 µM (inactive) | > 100 µM (inactive) | > 100 µM (inactive) | > 100 µM (inactive) | 71.6 µM (inactive) | > 100 µM (inactive) | 85.1 µM (inactive) | > 100 µM (inactive) | > 100 µM (inactive) |  | > 100 µM | > 100 µM (inactive) |
| NC(=O)CN1CCN(c2nc(N3CCCC3)c3nc(Cl)c(NCc4ccccc4)nc3n2)CC1 | 14 µM (inactive) | 11.8 µM (inactive) | 9.98 µM (inactive) | 9.66 µM (inactive) | 8.63 µM (inactive) | 11.8 µM (inactive) | 9.46 µM (inactive) | 10 µM (inactive) | 8.89 µM (inactive) | 10.6 µM (inactive) | 11.5 µM (inactive) | 9.89 µM (inactive) | 7.26 µM (inactive) | 7.89 µM (inactive) | 10.7 µM (inactive) | 7.96 µM (inactive) | 8.67 µM | 8.39 µM (inactive) |
| CCCCCCCCCCCCCCCCOP(=O)(O)OP(=O)(O)OCC1OC(n2ccc(N)nc2=O)CC1O (stereo unspecified) | > 100 µM (inactive) | > 100 µM (inactive) | > 100 µM (inactive) | > 100 µM (inactive) | > 100 µM (inactive) | > 100 µM (inactive) | > 100 µM (inactive) | > 100 µM (inactive) | > 100 µM (inactive) | > 100 µM (inactive) |  | > 100 µM (inactive) | > 100 µM (inactive) | > 100 µM (inactive) | > 100 µM (inactive) | > 100 µM (inactive) | > 100 µM | > 100 µM (inactive) |
| COc1cc2c(cc1O)c(O)cc1c3cc(OC)c(OC)cc3c[n+](C)c21 | > 85.9 µM (inactive) | > 78.2 µM (inactive) | 51.8 µM (inactive) | > 100 µM (inactive) | < 0.01 µM (active) | 9.62 µM (inactive) | > 100 µM (inactive) | 23 µM (inactive) | 18.7 µM (inactive) | > 100 µM (inactive) | 7.52 µM (inactive) | > 32.8 µM (inactive) | 2.86 µM (inactive) | 1.45 µM (inactive) | 35.2 µM (inactive) | > 67.5 µM (inactive) | > 100 µM | 20.7 µM (inactive) |
| Cc1cnc2nc(-c3ccc4ccccc4c3)cc(O)c2c1 | 0.349 µM (active) |  |  | > 100 µM (inactive) | 2.81 µM (inactive) | 0.504 µM (active) | > 100 µM (inactive) | > 100 µM (inactive) |  | 0.444 µM (active) | 0.408 µM (active) | 0.305 µM (active) | 0.431 µM (active) | > 100 µM (inactive) | 0.391 µM (active) |  | 0.439 µM |  |
